Test results published in patent US20260250318A1, “COMPOSITIONS AND METHODS FOR CROSSING THE BLOOD BRAIN BARRIER” (VOYAGER THERAPEUTICS, INC., priority 2022, published 2026).

Tests used:
[1] = test system: brains, heart, liver, muscle, and DRG of the NHPs; assay: Maturation of TTM-001 and TTM-002 capsids, NGS enrichment in NHP tissues; format: in vivo; conditions: relative to AAV9 control
Procedure, shortened: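 Variants carry mutations within and flanking the loop IV peptide insert: positions 450–466 were triplet-randomized, while positions 449–466 received low-frequency point mutations. The combined pool went into two NHPs, and each peptide was scored by NGS enrichment ratio against AAV9.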

brain = assay: Matured TTM-001 and TTM-002 variants, NGS enrichment in mouse brain; format: in vivo, mice; conditions: relative to AAV9 control
[2] = NGS fold-enrichment of RNA, NHP brain
[3] = NGS fold-enrichment, NHP liver DNA
[4] = NGS fold-enrichment, NHP liver RNA
[5] = NGS fold-enrichment, NHP muscle
[6] = NGS fold-enrichment, mouse brain
[7] = NGS fold-enrichment, DRG of NHPs
[8] = NGS fold-enrichment, RNA, brain of NHPs
[9] = NGS fold-enrichment, heart of NHPs
[10] = NGS fold-enrichment, liver DNA of NHPs
[11] = NGS fold-enrichment, liver RNA of NHPs
[12] = NGS fold-enrichment, muscle of NHPs
[13] = NGS fold-enrichment, brain of mice
[14] = NGS fold-enrichment of matured AAV capsid variants, NHP brain, RNA

Sequence	Fold Enrichment relative to AAV9, Brain (NHP) [1, 2]	Fold Enrichment relative to AAV9, DRG (NHP) ([1]; NGS fold-enrichment, NHP DRG)	Fold Enrichment relative to AAV9, Heart (NHP) ([1]; NGS fold-enrichment, NHP heart)	Fold Enrichment relative to AAV9, Liver DNA (NHP) [1, 3]	Fold Enrichment relative to AAV9, Liver RNA (NHP) [1, 4]	Fold Enrichment relative to AAV9, Muscle (NHP) [1, 5]	Fold Enrichment relative to AAV9, Brain (Mouse) (brain; [6])	Fold Enrichment relative to AAV9, DRG (NHP) [1, 7]	Fold Enrichment relative to AAV9, Brain (NHP) [1, 8]	Fold Enrichment relative to AAV9, Heart (NHP) [1, 9]	Fold Enrichment relative to AAV9, Liver DNA (NHP) [1, 10]	Fold Enrichment relative to AAV9, Liver RNA (NHP) [1, 11]	Fold Enrichment relative to AAV9, Muscle (NHP) [1, 12]	Fold Enrichment relative to AAV9, Brain (Mouse) (brain; [13])	further results
KTINGHESPHKSGQNQHS	92.248 fold	0.000 fold	0.032 fold	0.088 fold	0.090 fold	0.012 fold	9.720 fold								
KTINGHESPHKSGQTQQI	86.089 fold	0.000 fold	0.222 fold	0.024 fold	0.000 fold	0.000 fold	3.989 fold								
KTINGHESPHKSGRSQQT	97.106 fold	0.000 fold	3.329 fold	0.181 fold	0.000 fold	0.022 fold	9.378 fold								
KTINGHGSPHSKAQNPQT	83.478 fold	0.000 fold	0.288 fold	0.260 fold	0.000 fold	0.219 fold	11.001 fold								
KTINGIGSPHSKAQNLGT								0.000 fold	70.543 fold	0.071 fold	0.135 fold	0.000 fold	0.000 fold	104.769 fold	
KTINGLGSPHSKSQNQQT								0.000 fold	62.170 fold	0.157 fold	0.107 fold	0.146 fold	0.000 fold	64.139 fold	
KTINGNDSPHKSVQNHQT	120.002 fold	0.000 fold	0.099 fold	0.000 fold	0.000 fold	0.788 fold	7.920 fold								
KTINGNGSPHSKAQNHQA	88.274 fold	0.000 fold	0.024 fold	0.041 fold	0.000 fold	0.000 fold	36.754 fold								
KTINGNGSPHSKAQNPLT	75.269 fold	0.000 fold	0.000 fold	0.000 fold	0.366 fold	0.000 fold	53.583 fold	0.000 fold	75.269 fold	0.000 fold	0.000 fold	0.366 fold	0.000 fold	53.583 fold	
KTINGNGSPHSKSQNQHT															Fold Enrichment relative to AAV9, Brain (NHP) [1, 14]: 51.379 fold; Fold Enrichment relative to AAV9, DRG (NHP) ([1]; NHP DRG): 0.000 fold; Fold Enrichment relative to AAV9, Heart (NHP) ([1]; NHP heart): 0.054 fold; Fold Enrichment relative to AAV9, Liver DNA (NHP) ([1]; NHP liver, DNA): 0.082 fold; Fold Enrichment relative to AAV9, Liver RNA (NHP) ([1]; NHP liver, RNA): 0.000 fold; Fold Enrichment relative to AAV9, Muscle (NHP) ([1]; NHP muscle): 0.000 fold; Fold Enrichment relative to AAV9, Brain (Mouse) (brain; mouse brain): 56.614 fold
KTINGPDSPHKIGQNQQS	85.726 fold	0.000 fold	0.055 fold	0.063 fold	0.000 fold	0.171 fold	10.055 fold								
KTINGPGSPHSKAHNQQT	115.742 fold	0.146 fold	0.000 fold	0.513 fold	0.000 fold	0.235 fold	52.508 fold	0.146 fold	115.742 fold	0.000 fold	0.513 fold	0.000 fold	0.235 fold	52.508 fold	
KTINGQDSPHKSGQHQQA	85.657 fold	1.127 fold	0.579 fold	0.557 fold	0.193 fold	0.000 fold	5.582 fold								
KTINGQDSPHKSGQNQDT	82.075 fold	0.000 fold	0.067 fold	0.144 fold	0.225 fold	0.000 fold	9.626 fold								
KTINGRGSPHKRGQNQQT	120.889 fold	0.100 fold	0.814 fold	0.614 fold	0.458 fold	0.434 fold	13.988 fold								
KTINGSASPHSKAHSQQT															Fold Enrichment relative to AAV9, Brain (NHP) [1, 14]: 55.293 fold; Fold Enrichment relative to AAV9, DRG (NHP) ([1]; NHP DRG): 0.000 fold; Fold Enrichment relative to AAV9, Heart (NHP) ([1]; NHP heart): 0.000 fold; Fold Enrichment relative to AAV9, Liver DNA (NHP) ([1]; NHP liver, DNA): 0.166 fold; Fold Enrichment relative to AAV9, Liver RNA (NHP) ([1]; NHP liver, RNA): 0.000 fold; Fold Enrichment relative to AAV9, Muscle (NHP) ([1]; NHP muscle): 0.000 fold; Fold Enrichment relative to AAV9, Brain (Mouse) (brain; mouse brain): 66.252 fold
KTINGSGSPHAKAQNHQT															Fold Enrichment relative to AAV9, Brain (NHP) [1, 14]: 50.667 fold; Fold Enrichment relative to AAV9, DRG (NHP) ([1]; NHP DRG): 0.211 fold; Fold Enrichment relative to AAV9, Heart (NHP) ([1]; NHP heart): 0.140 fold; Fold Enrichment relative to AAV9, Liver DNA (NHP) ([1]; NHP liver, DNA): 0.090 fold; Fold Enrichment relative to AAV9, Liver RNA (NHP) ([1]; NHP liver, RNA): 0.101 fold; Fold Enrichment relative to AAV9, Muscle (NHP) ([1]; NHP muscle): 0.051 fold; Fold Enrichment relative to AAV9, Brain (Mouse) (brain; mouse brain): 80.603 fold
KTINGSGSPHGWVQNQQT	97.122 fold	0.000 fold	0.000 fold	1.975 fold	1.240 fold	0.000 fold	290.720 fold	0.000 fold	97.122 fold	0.000 fold	1.975 fold	1.240 fold	0.000 fold	290.720 fold	
KTINGSGSPHSKAGDSQT															Fold Enrichment relative to AAV9, Brain (NHP) [1, 14]: 50.457 fold; Fold Enrichment relative to AAV9, DRG (NHP) ([1]; NHP DRG): 0.614 fold; Fold Enrichment relative to AAV9, Heart (NHP) ([1]; NHP heart): 0.236 fold; Fold Enrichment relative to AAV9, Liver DNA (NHP) ([1]; NHP liver, DNA): 0.071 fold; Fold Enrichment relative to AAV9, Liver RNA (NHP) ([1]; NHP liver, RNA): 1.062 fold; Fold Enrichment relative to AAV9, Muscle (NHP) ([1]; NHP muscle): 0.008 fold; Fold Enrichment relative to AAV9, Brain (Mouse) (brain; mouse brain): 74.355 fold
KTINGSGSPHSKAHNQQR								0.562 fold	74.272 fold	0.486 fold	0.057 fold	0.956 fold	0.047 fold	107.301 fold	
